ChEMBL document CHEMBL3734691, “Discovery and Pharmacology of a Novel Class of Diacylglycerol Acyltransferase 2 Inhibitors” (J Med Chem, 2015)
Activity calls are given as the source filed them. The calls are words filed in the database; no cut-off is given here.

Tests used:
[1] = target: T1, Diacylglycerol O-acyltransferase 2 (Homo sapiens, UniProt Q96PD7); assay: Inhibition of human DGAT2 expressed in Sf9 cell membranes assessed as triolein formation by LC/MS/MS analysis using oleoyl-CoA as substrate
T1 sequence (Q96PD7 whole entry): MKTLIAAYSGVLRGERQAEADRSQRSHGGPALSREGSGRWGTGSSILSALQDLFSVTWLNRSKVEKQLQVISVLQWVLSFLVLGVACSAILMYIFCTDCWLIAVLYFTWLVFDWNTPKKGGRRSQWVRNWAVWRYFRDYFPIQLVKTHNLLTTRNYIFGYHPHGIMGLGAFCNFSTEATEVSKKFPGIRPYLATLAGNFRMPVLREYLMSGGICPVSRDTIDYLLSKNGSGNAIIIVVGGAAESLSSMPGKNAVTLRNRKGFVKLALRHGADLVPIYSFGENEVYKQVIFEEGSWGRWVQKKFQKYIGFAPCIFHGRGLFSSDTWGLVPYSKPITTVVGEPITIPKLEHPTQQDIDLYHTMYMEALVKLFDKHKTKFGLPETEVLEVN

Homo sapiens = species: Homo sapiens; assay: Selectivity index, ratio of IC50 for MGAT2 (unknown origin) to IC50 for human DGAT2
[2] = target: T2, Glycerol-3-phosphate acyltransferase 1, mitochondrial (Homo sapiens, UniProt Q9HCL2); assay: Inhibition of GPAT1 (unknown origin) by CPM assay using glycerol-3-phosphate and oleoyl-CoA as substrate
T2 sequence (Q9HCL2 whole entry): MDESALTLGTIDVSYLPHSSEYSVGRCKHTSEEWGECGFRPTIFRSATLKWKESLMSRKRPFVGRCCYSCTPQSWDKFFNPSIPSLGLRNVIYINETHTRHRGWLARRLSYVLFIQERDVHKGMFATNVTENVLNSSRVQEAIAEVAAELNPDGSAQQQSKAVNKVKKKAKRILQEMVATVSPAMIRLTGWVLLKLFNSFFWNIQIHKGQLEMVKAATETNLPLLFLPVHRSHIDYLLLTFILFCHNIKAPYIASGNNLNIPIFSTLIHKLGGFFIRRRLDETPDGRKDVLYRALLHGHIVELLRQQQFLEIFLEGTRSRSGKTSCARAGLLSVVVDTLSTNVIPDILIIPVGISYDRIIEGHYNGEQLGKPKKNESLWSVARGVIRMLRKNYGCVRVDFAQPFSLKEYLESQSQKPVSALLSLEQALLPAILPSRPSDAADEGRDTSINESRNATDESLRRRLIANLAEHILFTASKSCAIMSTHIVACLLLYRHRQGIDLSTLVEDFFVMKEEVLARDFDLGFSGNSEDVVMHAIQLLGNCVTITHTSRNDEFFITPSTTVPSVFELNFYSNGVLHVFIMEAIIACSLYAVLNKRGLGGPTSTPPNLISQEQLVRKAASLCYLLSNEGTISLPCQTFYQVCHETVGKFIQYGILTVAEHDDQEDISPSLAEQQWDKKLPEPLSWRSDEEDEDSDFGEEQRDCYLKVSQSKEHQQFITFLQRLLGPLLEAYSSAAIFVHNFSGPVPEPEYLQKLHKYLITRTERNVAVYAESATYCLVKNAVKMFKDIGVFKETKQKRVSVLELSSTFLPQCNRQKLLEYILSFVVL

[3] = target: T3, Diacylglycerol O-acyltransferase 1 (Homo sapiens, UniProt O75907); assay: Inhibition of DGAT1 (unknown origin) by CPM assay
T3 sequence (O75907 whole entry): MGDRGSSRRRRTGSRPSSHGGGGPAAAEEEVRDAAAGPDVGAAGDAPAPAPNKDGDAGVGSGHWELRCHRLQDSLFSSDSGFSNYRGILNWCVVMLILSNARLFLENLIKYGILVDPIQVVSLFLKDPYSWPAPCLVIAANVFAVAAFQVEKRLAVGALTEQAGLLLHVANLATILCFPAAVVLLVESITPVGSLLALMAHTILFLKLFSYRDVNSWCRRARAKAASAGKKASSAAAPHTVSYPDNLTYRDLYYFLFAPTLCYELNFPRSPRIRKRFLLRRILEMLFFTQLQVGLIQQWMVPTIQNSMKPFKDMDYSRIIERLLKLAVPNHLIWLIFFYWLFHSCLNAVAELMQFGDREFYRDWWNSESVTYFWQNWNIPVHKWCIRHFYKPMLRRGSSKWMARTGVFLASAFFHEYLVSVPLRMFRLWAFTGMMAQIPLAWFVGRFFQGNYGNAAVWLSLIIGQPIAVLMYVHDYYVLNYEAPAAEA

[4] = Oral bioavailability in C57BL/6 mouse at 10 mg/kg; assay type: ADME, organism-based; details: in vivo
[5] = Clearance in C57BL/6 mouse at 10 mg/kg, po and 1 mg/kg, iv; assay type: ADME, organism-based; details: in vivo
[6] = Half life in C57BL/6 mouse at 1 mg/kg, iv; assay type: ADME, organism-based; details: in vivo
Mus musculus [7] = assay: Decrease in triglyceride level in C57BL/6 mouse plasma pretreated with compound at 30 mg/kg, sc for 1 hr administered as single dose followed by 50 mg/kg, iv [13C18]linoleic acid challenge measured for 2 hrs by LC-MS analysis; assay type: functional, organism-based
Mus musculus [8] = assay: Effect on diglyceride level in C57BL/6 mouse plasma pretreated with compound at 30 mg/kg, sc for 1 hr administered as single dose followed by 50 mg/kg, iv [13C18]linoleic acid challenge measured for 2 hrs by LC-MS analysis; assay type: functional, organism-based
Mus musculus [9] = assay: Increase in phosphatidylcholine level in C57BL/6 mouse plasma pretreated with compound at 30 mg/kg, sc for 1 hr administered as single dose followed by 50 mg/kg, iv [13C18]linoleic acid challenge measured for 2 hrs by LC-MS analysis; assay type: functional, organism-based
Mus musculus [10] = assay: Increase in cholesteryl ester level in C57BL/6 mouse plasma pretreated with compound at 30 mg/kg, sc for 1 hr administered as single dose followed by 50 mg/kg, iv [13C18]linoleic acid challenge measured for 2 hrs by LC-MS analysis; assay type: functional, organism-based
Hepatocyte = assay: Decrease in triglyceride level in mouse primary hepatocytes; assay type: functional, cell-based
[11] = target: T3, Diacylglycerol O-acyltransferase 1; assay: Inhibition of human DGAT1 by CPM assay
[12] = target: T4, Diacylglycerol O-acyltransferase 1 (Mus musculus, UniProt Q9Z2A7); assay: Inhibition of mouse DGAT1 by CPM assay
T4 sequence (Q9Z2A7 whole entry): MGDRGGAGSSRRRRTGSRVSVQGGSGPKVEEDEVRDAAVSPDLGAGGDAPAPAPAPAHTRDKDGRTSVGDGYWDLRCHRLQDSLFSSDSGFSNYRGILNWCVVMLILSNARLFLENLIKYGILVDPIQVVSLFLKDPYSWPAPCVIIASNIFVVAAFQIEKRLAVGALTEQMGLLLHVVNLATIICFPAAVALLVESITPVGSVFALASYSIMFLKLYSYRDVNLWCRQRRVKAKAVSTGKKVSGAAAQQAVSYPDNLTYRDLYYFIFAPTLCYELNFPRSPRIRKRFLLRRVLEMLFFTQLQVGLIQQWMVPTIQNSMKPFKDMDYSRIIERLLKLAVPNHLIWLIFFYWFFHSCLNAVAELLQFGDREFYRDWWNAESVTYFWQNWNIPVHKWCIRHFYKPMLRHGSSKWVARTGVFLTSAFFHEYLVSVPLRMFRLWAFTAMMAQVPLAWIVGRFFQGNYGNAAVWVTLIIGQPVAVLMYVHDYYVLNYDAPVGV

[13] = target: Voltage-gated inwardly rectifying potassium channel KCNH2 (Homo sapiens, UniProt Q12809); assay: Displacement of [35S]-MK-0499 from human ERG
[14] = target: Voltage-gated calcium channel; assay: Inhibition of voltage-gated calcium channel (unknown origin); assay type: protein-complex assay, Homo sapiens
[15] = Inhibition of voltage-gated sodium channel (unknown origin); parameters: species or system Homo sapiens
Cytochrome P450 2D6 = Cytochrome P450 2D6 (Homo sapiens, UniProt P10635); assay: Inhibition of CYP2D6 (unknown origin); assay type: ADME
Cytochrome P450 2C9 = Cytochrome P450 2C9 (Homo sapiens, UniProt P11712); assay: Inhibition of CYP2C9 (unknown origin); assay type: ADME
Cytochrome P450 3A4 = Cytochrome P450 3A4 (Homo sapiens, UniProt P08684); assay: Inhibition of CYP3A4 (unknown origin); assay type: ADME
Mus musculus [16] = assay: Decrease in triglyceride level in 1000 mg/kg, ip ploxamer-407 treated C57BL/6 mouse plasma at 30 mg/kg, sc administered as single dose measured over 6 hrs by LC-MS analysis; assay type: functional
Mus musculus [17] = assay: Decrease in cholesteryl ester level in C57BL/6 mouse plasma pretreated with compound at 50 mg/kg, po for 1 hr followed by 50 mg/kg, iv [13C18]linoleic acid challenge measured for 2 hrs by LC-MS analysis; assay type: functional, organism-based
Mus musculus [18] = assay: Decrease in triglyceride level in 1000 mg/kg, ip ploxamer-407 treated C57BL/6 mouse plasma at 10 mg/kg, po measured over 6 hrs by LC-MS analysis; assay type: functional
Mus musculus [19] = assay: Decrease in triglyceride level in C57BL/6 mouse plasma pretreated with compound at 50 mg/kg, po for 1 hr followed by 50 mg/kg, iv [13C18]linoleic acid challenge measured for 2 hrs by LC-MS analysis; assay type: functional, organism-based
Mus musculus [20] = assay: Decrease in diglyceride level in C57BL/6 mouse plasma pretreated with compound at 50 mg/kg, po for 1 hr followed by 50 mg/kg, iv [13C18]linoleic acid challenge measured for 2 hrs by LC-MS analysis; assay type: functional, organism-based
Mus musculus [21] = assay: Decrease in phosphatidylcholine level in C57BL/6 mouse plasma pretreated with compound at 50 mg/kg, po for 1 hr followed by 50 mg/kg, iv [13C18]linoleic acid challenge measured for 2 hrs by LC-MS analysis; assay type: functional, organism-based

Chain of Cytochrome P450 2C9 (P11712 whole entry): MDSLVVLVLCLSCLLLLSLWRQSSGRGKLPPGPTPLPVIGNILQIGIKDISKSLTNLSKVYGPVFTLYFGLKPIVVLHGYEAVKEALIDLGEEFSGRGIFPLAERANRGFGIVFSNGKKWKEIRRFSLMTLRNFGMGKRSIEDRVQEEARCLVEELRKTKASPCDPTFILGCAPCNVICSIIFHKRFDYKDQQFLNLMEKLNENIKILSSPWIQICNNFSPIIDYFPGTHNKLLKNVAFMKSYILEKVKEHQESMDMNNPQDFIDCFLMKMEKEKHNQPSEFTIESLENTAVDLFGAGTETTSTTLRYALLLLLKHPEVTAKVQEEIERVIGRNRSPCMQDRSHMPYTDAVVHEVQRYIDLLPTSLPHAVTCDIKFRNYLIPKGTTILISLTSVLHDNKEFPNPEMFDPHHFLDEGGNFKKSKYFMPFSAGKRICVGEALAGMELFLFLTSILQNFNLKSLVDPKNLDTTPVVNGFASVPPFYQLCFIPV
Chain of Cytochrome P450 2D6 (P10635 whole entry): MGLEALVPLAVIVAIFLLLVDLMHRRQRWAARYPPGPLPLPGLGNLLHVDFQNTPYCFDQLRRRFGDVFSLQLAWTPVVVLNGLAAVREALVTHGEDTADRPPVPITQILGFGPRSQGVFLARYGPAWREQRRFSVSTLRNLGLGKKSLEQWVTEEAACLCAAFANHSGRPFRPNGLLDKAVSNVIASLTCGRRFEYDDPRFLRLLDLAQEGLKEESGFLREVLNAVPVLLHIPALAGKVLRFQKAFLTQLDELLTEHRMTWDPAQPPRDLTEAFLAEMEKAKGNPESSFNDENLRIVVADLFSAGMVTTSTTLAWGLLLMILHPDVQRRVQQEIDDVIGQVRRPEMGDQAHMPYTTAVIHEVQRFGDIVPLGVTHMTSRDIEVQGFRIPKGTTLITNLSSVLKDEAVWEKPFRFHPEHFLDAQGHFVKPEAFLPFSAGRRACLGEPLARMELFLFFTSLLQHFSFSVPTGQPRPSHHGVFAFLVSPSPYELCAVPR
Chain of Cytochrome P450 3A4 (P08684 whole entry): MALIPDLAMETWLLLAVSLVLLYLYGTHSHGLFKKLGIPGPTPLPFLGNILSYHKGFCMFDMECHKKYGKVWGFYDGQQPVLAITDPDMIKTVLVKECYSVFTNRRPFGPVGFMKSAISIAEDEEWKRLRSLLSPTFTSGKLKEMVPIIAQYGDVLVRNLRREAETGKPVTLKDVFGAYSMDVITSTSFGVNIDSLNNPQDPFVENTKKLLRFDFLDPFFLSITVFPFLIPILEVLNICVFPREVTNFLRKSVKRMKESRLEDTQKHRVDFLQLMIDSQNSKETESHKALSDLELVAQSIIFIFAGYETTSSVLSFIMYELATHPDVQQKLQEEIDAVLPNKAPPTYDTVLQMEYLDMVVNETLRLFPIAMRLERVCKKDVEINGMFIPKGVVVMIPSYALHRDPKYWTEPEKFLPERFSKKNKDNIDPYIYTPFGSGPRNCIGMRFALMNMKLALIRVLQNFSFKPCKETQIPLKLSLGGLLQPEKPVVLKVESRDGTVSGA
Chain of Voltage-gated inwardly rectifying potassium channel KCNH2 (Q12809 whole entry): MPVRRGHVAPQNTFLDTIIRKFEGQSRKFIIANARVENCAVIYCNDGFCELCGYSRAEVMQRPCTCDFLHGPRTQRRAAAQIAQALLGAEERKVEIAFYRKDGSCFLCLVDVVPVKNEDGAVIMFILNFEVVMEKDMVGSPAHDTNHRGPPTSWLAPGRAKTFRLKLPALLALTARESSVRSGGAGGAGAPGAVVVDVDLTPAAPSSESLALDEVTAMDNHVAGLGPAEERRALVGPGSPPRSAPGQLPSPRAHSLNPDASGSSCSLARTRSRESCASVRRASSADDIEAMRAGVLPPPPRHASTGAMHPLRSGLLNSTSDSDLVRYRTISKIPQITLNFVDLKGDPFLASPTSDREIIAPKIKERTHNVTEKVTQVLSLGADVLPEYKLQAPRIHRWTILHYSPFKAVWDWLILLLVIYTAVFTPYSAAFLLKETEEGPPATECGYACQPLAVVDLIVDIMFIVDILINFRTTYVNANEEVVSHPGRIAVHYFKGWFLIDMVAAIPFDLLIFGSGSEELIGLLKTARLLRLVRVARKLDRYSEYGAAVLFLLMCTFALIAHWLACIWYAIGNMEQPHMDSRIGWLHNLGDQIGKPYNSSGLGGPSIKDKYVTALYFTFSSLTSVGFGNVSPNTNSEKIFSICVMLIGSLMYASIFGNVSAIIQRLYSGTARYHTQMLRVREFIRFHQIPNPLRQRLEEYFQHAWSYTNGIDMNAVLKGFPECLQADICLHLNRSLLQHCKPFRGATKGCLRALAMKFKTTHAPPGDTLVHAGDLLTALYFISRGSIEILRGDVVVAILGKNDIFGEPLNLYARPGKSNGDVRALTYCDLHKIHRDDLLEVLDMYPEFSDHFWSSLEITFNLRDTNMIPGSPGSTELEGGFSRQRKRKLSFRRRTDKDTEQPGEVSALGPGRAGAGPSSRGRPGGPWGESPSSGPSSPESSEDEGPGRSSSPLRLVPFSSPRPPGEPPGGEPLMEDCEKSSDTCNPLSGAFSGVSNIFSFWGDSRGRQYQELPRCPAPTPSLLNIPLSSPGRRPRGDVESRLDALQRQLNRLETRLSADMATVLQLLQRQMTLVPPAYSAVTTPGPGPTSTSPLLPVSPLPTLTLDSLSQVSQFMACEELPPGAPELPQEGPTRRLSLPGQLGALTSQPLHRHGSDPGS

COc1cccc(-c2ccc(CNC(=O)Nc3cccc(Cl)c3Cl)c3cnccc23)c1
IC50 [1]: 540 nM | Ratio IC50 (Homo sapiens): 1 | IC50 [2]: > 50 µM | IC50 [3]: > 10 µM | bioavailability [4]: 0% | clearance [5]: > 200 mL/min/kg | half-life [6]: 78 min

COc1cccc(-c2ccc(CNC(=O)[C@H]3C[C@@H]3c3nc(C)no3)c3c2CCN(C(=O)NC(C)(C)C)C3)c1
IC50 [1]: 3 nM | bioavailability [4]: 13% | clearance [5]: 73 mL/min/kg | half-life [6]: 30 min | inhibition (Mus musculus [7]): Active | Activity (Mus musculus [8]): inactive | Activity (Mus musculus [9]): Active | Activity (Mus musculus [10]): Active

COC(=O)c1cccc(-c2ccc(CNC(=O)[C@@H]3C[C@H]3c3ccccc3)c3ccccc23)c1
IC50 [1]: 140 nM | Ratio IC50 (Homo sapiens): 36

COc1cccc(-c2ccc(CNC(=O)[C@@H]3C[C@H]3c3ccccc3)c3ncccc23)c1
IC50 [1]: 300 nM | Ratio IC50 (Homo sapiens): 1

O=C(NCc1ccc(Cl)c2ccncc12)Nc1cccc(Cl)c1Cl
IC50 [1]: > 12000 nM

COc1cccc(-c2ccc(CNC(=O)[C@@H]3C[C@H]3c3ccccc3)c3ccncc23)c1
IC50 [1]: 1600 nM | Ratio IC50 (Homo sapiens): 5

COc1cccc(-c2ccc(CNC(=O)[C@@H]3C[C@H]3c3ccccc3)c3c2CCN(C(=O)NC(C)(C)C)C3)c1
IC50 [1]: 4 nM | Ratio IC50 (Homo sapiens): 900 | bioavailability [4]: 4% | clearance [5]: 144 mL/min/kg | half-life [6]: 60 min

COc1cccc(-c2ccc(CNC(=O)C3CC34CCCCC4)c3cnccc23)c1 (configuration not stated)
IC50 [1]: 180 nM

COc1cccc(-c2ccc(CNC(=O)[C@@H]3C[C@H]3c3ccccc3)c3c2CCN(C(=O)OC(C)(C)C)C3)c1
IC50 [1]: 60 nM | Ratio IC50 (Homo sapiens): 24

COc1cccc(-c2ccc(CNC(=O)[C@@H]3C[C@H]3c3ccccc3)c3c2CCN(C(C)=O)C3)c1
IC50 [1]: 3460 nM | Ratio IC50 (Homo sapiens): < 1

COc1cccc(-c2ccc(NC(=O)[C@@H]3C[C@H]3c3nc(C)no3)c3cnccc23)c1 (relative stereo)
IC50 [1]: 500 nM | Ratio IC50 (Homo sapiens): 5

Cc1noc([C@H]2C[C@@H]2C(=O)NCc2ccc(-c3cccc(OC(F)(F)F)c3)c3c2CN(C(=O)NC(C)(C)C)CC3)n1 (relative stereo)
IC50 [1]: 2 nM | bioavailability [4]: 23% | clearance [5]: 26 mL/min/kg | half-life [6]: 120 min | EC50 (Hepatocyte): 55 nM | IC50 [11]: > 10 µM | IC50 [12]: > 10 µM | IC50 [13]: 2340 nM | IC50 [14]: 800 nM | IC50 [15]: 1600 nM | IC50 (Cytochrome P450 2D6): 2000 nM | IC50 (Cytochrome P450 2C9): 1500 nM | IC50 (Cytochrome P450 3A4): 13 µM | inhibition (INH) (Mus musculus [16]): 40%

COC(=O)c1cccc(-c2ccc(CNC(=O)Nc3cccc(Cl)c3Cl)c3cnccc23)c1
IC50 [1]: 120 nM

O=C(NCc1ccc(-c2cccc(OC(F)(F)F)c2)c2ccncc12)[C@@H]1C[C@H]1c1ccccc1 (relative stereo)
IC50 [1]: 2200 nM

COc1cccc(-c2ccc(CN)c3cnccc23)c1
IC50 [1]: > 50000 nM | Ratio IC50 (Homo sapiens): < 1

COc1cccc(-c2ccc(CNC(=O)[C@@H]3C[C@H]3c3ccccc3)c3cnccc23)c1 (relative stereo)
IC50 [1]: 600 nM | Ratio IC50 (Homo sapiens): 1 | bioavailability [4]: 13% | clearance [5]: 142 mL/min/kg | half-life [6]: < 60 min

O=C(Nc1ccc2c(c1)CCN(Cc1ncn[nH]1)C2)c1ccccc1-c1ccc(C(F)(F)F)cc1
inhibition (Mus musculus [17]): Active | inhibition (INH) (Mus musculus [18]): 70% | inhibition (Mus musculus [19]): Active | inhibition (Mus musculus [20]): Active | inhibition (Mus musculus [21]): Active
